Source: ChEMBL document CHEMBL5352415, “Discovery of new macrophage M2 polarization modulators as multiple sclerosis treatment agents that enable the inflammation microenvironment remodeling” (Eur J Med Chem, 2022)
Activity calls are given as the source filed them. The rule behind the calls is not given here.

Tests used:
[1] = target: RAC-alpha serine/threonine-protein kinase (Homo sapiens, UniProt P31749); assay: Inhibition of AKT1 (unknown origin); assay type: binding
[2] = Cmax in ICR mouse at 50 mg/kg, po measured upto 24 hrs by LC/MS analysis; assay type: ADME, organism-based; design: dose 50 mg/kg, time < 24 hrs, route po; conditions: in vivo
Mus musculus [3] = assay: (§1) Anti-inflammatory activity in MOG (35 to 55 residues)/pertussis toxin-induced experimental autoimmune encephalomyelitis C57BL/6 mouse model assessed as inhibition of M1 macrophage polarization by measuring decrease in Mcp1 mRNA expression in CNS administered orally once daily starting from day 7 to day 20 by qRT-PCR analysis; assay type: functional, organism-based; conditions: dose 75-150 mg/kg, route po, time 14.0 day
Mus musculus [4] = assay: as §1, with “Inos” for “Mcp1”; assay type: functional, organism-based; conditions: dose 75-150 mg/kg, route po, time 14.0 day
Mus musculus [5] = assay: as §1, with “interferon-gamma” for “Mcp1”, “CNS at 75 to 150 mg/kg, po” for “CNS”, “administered” for “administered orally”; assay type: functional, organism-based; conditions: dose 75-150 mg/kg, time 14.0 day
Mus musculus [6] = assay: Anti-inflammatory activity in MOG (35 to 55 residues)/pertussis toxin-induced experimental autoimmune encephalomyelitis C57BL/6 mouse model assessed as increase in F4/80+ CD206+ M2 macrophage in DLN at 75 to 150 mg/kg, po administered once daily starting from day 7 to day 20 by flow cytometric analysis; assay type: functional; conditions: dose 75-150 mg/kg, time 14 day
Mus musculus [7] = assay: (§2) Anti-inflammatory activity in MOG (35 to 55 residues)/pertussis toxin-induced experimental autoimmune encephalomyelitis C57BL/6 mouse model assessed as inhibition of CD4+ T cell differentiation by measuring reduction in Th1 (IFN-gamma+) cells in DLN administered orally once daily starting from day 7 to day 20 by flow cytometric analysis; assay type: functional, organism-based; conditions: dose 75-150 mg/kg, route po, time 14.0 day
Mus musculus [8] = assay: (§3) Anti-inflammatory activity in MOG (35 to 55 residues)/pertussis toxin-induced experimental autoimmune encephalomyelitis C57BL/6 mouse model assessed as T cell activation by measuring increase in CD44lo CD62Lhi naive T cells in DLN at 75 to 150 mg/kg, po administered once daily starting from day 7 to day 20 by flow cytometric analysis; assay type: functional, organism-based; conditions: dose 75-150 mg/kg, time 14.0 day
Mus musculus [9] = assay: as §3, with “spleen” for “DLN”; assay type: functional, organism-based; conditions: dose 75-150 mg/kg, time 14.0 day
Mus musculus [10] = assay: as §2, with “Th17 (Il-4+)” for “Th1 (IFN-gamma+)”, “spleen” for “DLN”; assay type: functional, organism-based; conditions: dose 75-150 mg/kg, route po, time 14.0 day
[11] = Induction of M2 macrophage polarization in C57BL/6 mouse BMDM cells assessed as fold increase in Ym1 gene level at 1 uM incubated for 24 hrs by qRT-PCR analysis; assay type: functional
[12] = Inhibition of LPS-induced M1 macrophage polarization in C57BL/6 mouse BMDM cells assessed as fold decrease in Inos gene level at 1 uM preincubated with LPS for 24 hrs followed by compound addition and measured after 24 hrs by qRT-PCR analysis (reference value: 524.05 +/- 24.75); assay type: functional

RAC-alpha serine/threonine-protein kinase, sequence (P31749 whole entry): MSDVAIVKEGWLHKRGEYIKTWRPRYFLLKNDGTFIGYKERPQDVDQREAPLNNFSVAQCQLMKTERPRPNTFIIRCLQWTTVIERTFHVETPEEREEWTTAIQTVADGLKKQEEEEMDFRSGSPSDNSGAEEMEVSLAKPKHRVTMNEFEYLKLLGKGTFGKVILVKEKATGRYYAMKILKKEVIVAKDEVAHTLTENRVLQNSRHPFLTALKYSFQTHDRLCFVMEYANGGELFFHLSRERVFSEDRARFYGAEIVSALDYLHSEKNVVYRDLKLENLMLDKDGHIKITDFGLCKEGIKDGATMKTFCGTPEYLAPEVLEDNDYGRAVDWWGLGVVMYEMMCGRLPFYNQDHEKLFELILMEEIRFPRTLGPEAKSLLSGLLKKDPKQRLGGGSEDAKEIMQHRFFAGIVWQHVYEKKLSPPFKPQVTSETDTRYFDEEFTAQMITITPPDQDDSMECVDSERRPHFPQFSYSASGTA

SMILES: Cl.Cn1ncc(Br)c1-c1ccc(C(=O)N[C@@H]2CNCC[C@H]2c2ccc(F)c(F)c2)cc1C1CC1
- IC50 [1]: 434 nM
- Cmax [2]: 1990 ng/mL
- Activity (Mus musculus [3]): Dose-Dependent Effect
- Activity (Mus musculus [4]): Dose-Dependent Effect
- Activity (Mus musculus [5]): Active
- Activity (Mus musculus [6]): 10.6%
- Activity (Mus musculus [7]): Dose-Dependent Effect
- Activity (Mus musculus [8]): Active
- Activity (Mus musculus [9]): Active
- Activity (Mus musculus [10]): Dose-Dependent Effect
- fold change (FC) [11]: 14.31
- fold change (FC) [12]: 195.4
